Measured values from patent US20220295849A1, “Steviol Glycoside Compositions for Oral Ingestion or Use” (CARGILL, Incorporated, priority 2016, published 2022).
One block for each compound: values may come before it.

How the values were obtained:
[1] = literature; cited from earlier work
[2] = literature; cited from earlier work; remark: listed apart in the source
[3] = Instantaneous solubility in deionized water at room temperature; format: physicochemical; conditions: for instantaneous solubility: water
Text: The composition can optionally be expressed in terms of the concentration of one or more steviol glycoside(s). Beneficially, it has been founds that compound(s) SG101-104 can improve solubility of steviol glycosides in an aqueous solution, and therefore compositions can be prepared having a greater concentration of steviol glycosides in solution. […] Clear solutions without precipitates are considered soluble. Unless indicated otherwise herein, the term “solubility” refers to “equilibrium solubility.”
Instantaneous solubility is determined by mixing steviol glycoside with deionized water vigorously for 10 minutes at room temperature. […] Clear solutions without precipitates are considered soluble.

[4] = Equilibrium solubility (80° C. for 15 minutes, cooled to room temperature, observed up to 4 days); format: physicochemical; conditions: for equilibrium solubility (soluble/insoluble): 80° C. 15 minutes, then room temperature up to 4 days; for equilibrium solubility: heated to 80° C. for 15 minutes, room temperature, at least 4 days
Text: The composition can optionally be expressed in terms of the concentration of one or more steviol glycoside(s). Beneficially, it has been founds that compound(s) SG101-104 can improve solubility of steviol glycosides in an aqueous solution, and therefore compositions can be prepared having a greater concentration of steviol glycosides in solution. […] Clear solutions without precipitates are considered soluble. Unless indicated otherwise herein, the term “solubility” refers to “equilibrium solubility.” […]

[5] = Sensory evaluation (tasting) of glycoside solutions in unsweetened black tea, Test A; format: in vivo
Procedure: (§1) Glycoside samples (SG101-104) were isolated and purified from fermentation broth, purified Rebs A, B, and D are of leaf origin and Reb M is chemically synthesized. All samples were dissolved in reverse osmosis water at the concentrations indicated. Unsweetened black tea was used in one set of experiments. Approximately 2-3 milliliters of each solution was tasted and sensory evaluations conducted by two individuals. In one set of experiments a third individual also tasted.

[6] = Sensory evaluation (tasting) of glycoside solutions in reverse osmosis water, Test A and Test B; format: in vivo; conditions: for summary of sensory evaluation: summary of Example 5
Procedure: as §1

[7] = Sucrose equivalent value (SEV) in citric acid buffer; format: in vivo; conditions: for SEV: citric acid buffer at pH=3.0; for Sucrose equivalent value / relative sweetness scale-sucrose = 1: 250 ppm in citric buffer, pH = 3.0
Text: Sweetness may be determined by measuring sucrose equivalent values (SEV) using methods and processes well known to those skilled in the art. For example, SEV may be determined by measuring sweetness equivalence to a reference sucrose solution. Typically, taste panelists are trained to detect and scale sweetness of reference sucrose solutions containing between 10 g to 150 g/kg sucrose. A sweetener composition containing one or more glycosides are then tasted at a series of dilutions to determine the concentration of the sweetener composition that is as sweet as a given sucrose reference. For example, if a sweetener composition is as sweet as 50 g/kg of sucrose solution in a citric acid buffer at pH 3.1, then the sweetener composition is assigned a SEV of 5.
For example, SEVs for SG101 and SG102 at 200 ppm are 0.6 and 1.0, respectively; SEV=1.6 for SG101 at 500 ppm and SEV=1.2 at 400 ppm; and SEV=1.5 for SG102 at 400 ppm (as measured in a citric acid buffer at pH=3.0). Thus, at ppm<500, SG101 may be employed as a sensory modifier, and at ppm<400, SG102 may be employed as a sensory modifier in a beverage.

[8] = Test A, 200 ppm in water, three experienced taste testers
[9] = SG compound alone in tea, about 200 ppm (Table 7)

SMILES: C=C1C[C@@]23CC[C@H]4[C@@](C)(CCC[C@@]4(C)C(=O)O[C@@H]4O[C@H](CO)[C@@H](O)[C@H](O)[C@H]4O)[C@@H]2CC[C@]1(O[C@@H]1O[C@H](CO)[C@@H](O)[C@H](O[C@@H]2O[C@H](CO)[C@@H](O)[C@H](O)[C@H]2O)[C@H]1O[C@@H]1O[C@H](CO)[C@@H](O)[C@H](O)[C@H]1O)C3 [Reb A, rebaudioside A]
- taste properties [1]: has off-taste issues

- instantaneous solubility (soluble/insoluble) ([3]; 0.08% in deionized water, clear solution without precipitates = soluble): insoluble
- instantaneous solubility (soluble/insoluble) ([3]; 0.10% in deionized water): insoluble
- instantaneous solubility (soluble/insoluble) ([3]; 0.15% in deionized water): insoluble
- instantaneous solubility (soluble/insoluble) ([3]; 0.20% in deionized water): insoluble
- instantaneous solubility [3]: < 0.08%
- instantaneous solubility ([3]; listed as rebaudioside D): less than 0.08%
- equilibrium solubility (soluble/insoluble) ([4]; 0.08%): soluble
- equilibrium solubility (soluble/insoluble) ([4]; 0.10%): insoluble
- equilibrium solubility (soluble/insoluble) ([4]; 0.15%): insoluble
- equilibrium solubility (soluble/insoluble) ([4]; 0.20%): insoluble
- equilibrium solubility [4]: 0.08%
SMILES: C=C1C[C@@]23CC[C@H]4[C@@](C)(CCC[C@@]4(C)C(=O)O[C@@H]4O[C@H](CO)[C@@H](O)[C@H](O)[C@H]4O[C@@H]4O[C@H](CO)[C@@H](O)[C@H](O)[C@H]4O)[C@@H]2CC[C@]1(O[C@@H]1O[C@H](CO)[C@@H](O)[C@H](O[C@@H]2O[C@H](CO)[C@@H](O)[C@H](O)[C@H]2O)[C@H]1O[C@@H]1O[C@H](CO)[C@@H](O)[C@H](O)[C@H]1O)C3 [Reb D, rebaudioside D]
- aqueous solubility [2]: low solubility in water at room temperature
- taste properties [1]: slow onset of sweetness and was very clean
- times sweeter than sucrose [1]: 200-220 times

- instantaneous solubility (soluble/insoluble) ([3]; 0.10% in deionized water): soluble
- instantaneous solubility (soluble/insoluble) ([3]; 0.13% in deionized water): soluble
- instantaneous solubility (soluble/insoluble) ([3]; 0.20% in deionized water): insoluble
- instantaneous solubility (soluble/insoluble) ([3]; 0.30% in deionized water): insoluble
- instantaneous solubility [3]: at least 0.13%
- instantaneous solubility ([3]; listed as rebaudioside M): about 0.13%
- equilibrium solubility (soluble/insoluble) ([4]; 0.10%): soluble
- equilibrium solubility (soluble/insoluble) ([4]; 0.13%): soluble
- equilibrium solubility (soluble/insoluble) ([4]; 0.20%): soluble
- equilibrium solubility (soluble/insoluble) ([4]; 0.30%): insoluble
- equilibrium solubility [4]: at least 0.2%
- equilibrium solubility ([4]; listed as rebaudioside M): about 0.2%
SMILES: C=C1C[C@@]23CC[C@H]4[C@@](C)(CCC[C@@]4(C)C(=O)O[C@@H]4O[C@H](CO)[C@@H](O)[C@H](O[C@@H]5O[C@H](CO)[C@@H](O)[C@H](O)[C@H]5O)[C@H]4O[C@@H]4O[C@H](CO)[C@@H](O)[C@H](O)[C@H]4O)[C@@H]2CC[C@]1(O[C@@H]1O[C@H](CO)[C@@H](O)[C@H](O[C@@H]2O[C@H](CO)[C@@H](O)[C@H](O)[C@H]2O)[C@H]1O[C@@H]1O[C@H](CO)[C@@H](O)[C@H](O)[C@H]1O)C3 [Reb M, rebaudioside M]
- aqueous solubility [2]: poor aqueous solubility and dissolution qualities in beverage formulations
- taste properties [1]: has higher sweetness intensity and is more potent than other steviol glycosides
- sensory comments ([5]; Reb M alone in tea, concentration not stated (200.4 and 401.0 ppm prepared)): Nice subtle sweetness, feels like sugar, but with long linger very good
- sensory comments [6, 8]: Typical mid-sweet for Reb M, fairly well rounded, quick rise, some tailing, some bitter
- sensory comments ([6]; Test A, 400 ppm in water): Higher sweet, faster onset than 200 ppm, cotton candy sweetness—skews to HFCS longer linger, sharper bitterness—but not oppressing sweetness
- sensory comments ([6]; Test B, Reb M alone in water, concentration not stated (200-398 ppm prepared)): clean, sweet, spiky sweetness

SMILES: C=C1C[C@@]23CCC4[C@](C)(C(=O)OC5OC(CO)C(O)C(O)C5OC5OC(CO)C(O)C(O)C5O)CCC[C@@]4(C)[C@@H]2CCC1(OC1OC(COC2OC(CO)C(O)C(O)C2O)C(O)C(OC2OC(CO)C(O)C(O)C2O)C1OC1OC(CO)C(O)C(O)C1O)C3 (stereo partly drawn) [SG101]
- SEV ([7]; 200 ppm): 0.6
- SEV ([7]; 400 ppm): 1.2
- SEV ([7]; 500 ppm): 1.6
- sensory comments [5, 9]: Zero sweetness, seems less than in water, naked tea
- sensory comments [6, 8]: not sweet, astringent, cloying—mouth drying on the tongue
- summary of sensory evaluation [6]: less sweet than SG103 and SG104

SMILES: C=C1C[C@@]23CCC4[C@](C)(C(=O)OC5OC(CO)C(O)C(OC6OC(CO)C(O)C(O)C6O)C5OC5OC(CO)C(O)C(O)C5O)CCC[C@@]4(C)[C@@H]2CCC1(OC1OC(COC2OC(CO)C(O)C(O)C2O)C(O)C(OC2OC(CO)C(O)C(O)C2O)C1OC1OC(CO)C(O)C(O)C1O)C3 (stereo partly drawn) [SG102]
- SEV ([7]; 200 ppm): 1.0
- SEV ([7]; 400 ppm): 1.5
- sensory comments [5, 9]: Not sweet, slightly less astringent, some additional roundedness
- sensory comments [6, 8]: a bit sweeter than 1-1, sweetness does have quick onset
- summary of sensory evaluation [6]: less sweet than SG103 and SG104

SMILES: C=C1C[C@@]23CCC4[C@](C)(C(=O)OC5OC(CO)C(O)C(O)C5OC5OC(CO)C(O)C(O)C5O)CCC[C@@]4(C)[C@@H]2CCC1(OC1OC(CO)C(O)C(OC2OC(COC4OC(CO)C(O)C(O)C4O)C(O)C(O)C2O)C1OC1OC(CO)C(O)C(O)C1O)C3 (stereo partly drawn) [SG103]
- Sucrose equivalent value [7]: 4.8
- relative sweetness scale-sucrose = 1 [7]: 192X
- sensory comments [5, 9]: Slower onset than Reb M by itself, not as sweet as Reb M, slightly more licorice aftertaste
- sensory comments [6, 8]: as sweet or sweeter than 200 ppm Reb M, more sucrosey, sugary quality characteristics (high fructose corn syrup (HFCS), cotton candy notes) are reminiscent of Reb M at 400 ppm but not as sweet, “fuller” feeling
- summary of sensory evaluation [6]: good sole sweeteners

SMILES: C=C1C[C@@]23CCC4[C@](C)(C(=O)OC5OC(CO)C(O)C(OC6OC(CO)C(O)C(O)C6O)C5OC5OC(CO)C(O)C(O)C5O)CCC[C@@]4(C)[C@@H]2CCC1(OC1OC(CO)C(O)C(OC2OC(COC4OC(CO)C(O)C(O)C4O)C(O)C(O)C2O)C1OC1OC(CO)C(O)C(O)C1O)C3 (stereo partly drawn) [SG104]
- Sucrose equivalent value [7]: 6.5
- relative sweetness scale-sucrose = 1 [7]: 260X
- sensory comments [5, 9]: As sweet as Reb M, very sucrosey compared to Reb M, a little back end licorice
- sensory comments [6, 8]: as sweet or sweeter than 200 ppm Reb M, more rounded sweetness, enhanced sugar quality effects (sensations reminiscent of sucrose, vanilla), “fuller” feeling
- summary of sensory evaluation [6]: good sole sweeteners
